The target of series [1] is T1, 5'-nucleotidase (Homo sapiens, UniProt P21589). As to the kind of experiment: Inhibition of CD73 in human plasma incubated for 15 mins in presence of 15N5-AMP by LC/MS analysis. It is filed as cell-free.
Series [2] in a line: Clearance in CD rat at 1 mg/kg, iv measured for 24 hrs by LC-MS/MS analysis. Format: ADME, organism-based. The following applies: in vivo.
The target in series [3] is T1, 5'-nucleotidase. As to the kind of experiment: Inhibition of recombinant human CD73.
For series [4], the target named is T1, 5'-nucleotidase. As to the kind of experiment: Inhibition of cell surface anchored CD73 (unknown origin) expressed in human SK-MEL-28 cells incubated for 30 mins by malachite green assay. Format: cell-based.
Series [5] is described as follows: Oral bioavailability in CD rat at 50 mg/kg measured for 24 hrs by LC-MS/MS analysis. It is filed as ADME, organism-based. The settings on record: CD, in vivo.
In series [6] the target is T1, 5'-nucleotidase. As to the kind of experiment: Inhibition of soluble C-terminal 6His-tagged recombinant human CD73 (27 to 547 residues) expressed in CHO cells incubated for 1 hr by malachite green based spectrophotometer assay. Format: cell-based.
Series [7] can be described thus: Selectivity ratio of IC50 for CD73 in human plasma to IC50 for C-terminal 6His-tagged recombinant human CD73 (27 to 547 residues) expressed in CHO cells. It is filed as cell-based.
The subject of series [8] is EG7. Description: Antitumor activity against mouse EG7 cells implanted in mouse. Format: functional, cell-based.
In series [9] the target is T2, 5'-nucleotidase (Mus musculus, UniProt Q61503).
T2 sequence (Q61503 whole entry): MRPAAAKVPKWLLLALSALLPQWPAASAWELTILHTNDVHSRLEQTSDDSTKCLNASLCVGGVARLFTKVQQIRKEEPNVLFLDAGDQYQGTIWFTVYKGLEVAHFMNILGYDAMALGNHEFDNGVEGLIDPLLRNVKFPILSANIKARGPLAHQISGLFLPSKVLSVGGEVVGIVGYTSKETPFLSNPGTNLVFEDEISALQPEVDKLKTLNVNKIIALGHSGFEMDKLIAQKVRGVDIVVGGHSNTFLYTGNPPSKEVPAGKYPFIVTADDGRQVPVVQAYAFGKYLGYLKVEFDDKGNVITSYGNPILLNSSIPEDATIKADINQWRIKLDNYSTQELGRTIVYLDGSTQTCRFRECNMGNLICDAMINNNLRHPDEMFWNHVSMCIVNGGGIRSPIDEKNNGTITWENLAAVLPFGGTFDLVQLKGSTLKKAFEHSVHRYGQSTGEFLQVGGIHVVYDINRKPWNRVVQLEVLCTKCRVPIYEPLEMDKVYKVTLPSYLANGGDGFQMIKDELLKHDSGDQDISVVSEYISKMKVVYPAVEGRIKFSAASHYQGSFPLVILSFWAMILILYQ
As to the kind of experiment: Inhibition of C-terminal 6His-tagged recombinant mouse CD73 (29 to 549 residues) expressed in CHO cells incubated for 1 hr by malachite green assay. It is filed as cell-based.

Each structure is given as a SMILES string. Calls of active or inactive are those of the source. The rule behind the calls is not given here. Bounds are passed on as bounds.

T1 sequence (P21589 whole entry): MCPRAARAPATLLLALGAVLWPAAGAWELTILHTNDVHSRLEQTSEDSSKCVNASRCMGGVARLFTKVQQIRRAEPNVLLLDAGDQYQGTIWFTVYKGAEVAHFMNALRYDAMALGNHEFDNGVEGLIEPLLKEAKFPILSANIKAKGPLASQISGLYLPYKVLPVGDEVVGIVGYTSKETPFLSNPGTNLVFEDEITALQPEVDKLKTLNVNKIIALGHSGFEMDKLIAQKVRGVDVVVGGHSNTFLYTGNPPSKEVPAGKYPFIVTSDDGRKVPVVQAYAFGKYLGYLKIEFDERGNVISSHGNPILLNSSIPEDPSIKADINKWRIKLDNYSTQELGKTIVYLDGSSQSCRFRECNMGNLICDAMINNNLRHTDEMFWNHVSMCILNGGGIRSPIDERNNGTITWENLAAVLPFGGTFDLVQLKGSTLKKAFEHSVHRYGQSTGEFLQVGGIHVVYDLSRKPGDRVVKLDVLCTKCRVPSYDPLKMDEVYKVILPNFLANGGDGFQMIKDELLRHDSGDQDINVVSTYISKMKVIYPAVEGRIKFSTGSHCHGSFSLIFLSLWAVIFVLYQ

For orientation: IC50 means the concentration that inhibits the measured activity by half. In general, clearance refers to the rate of elimination divided by the concentration. Read a low clearance as a low capacity for elimination. As to `C#C[C@@]1(O)[C@@H](COC(Cc2ccccc2)(C(=O)O)C(=O)O)O[C@@H](n2cnc3c(NCCO)nc(Cl)nc32)[C@@H]1O`, the IC50 in series [1] is 7.2 nM. The clearance in [2] came to 7.5 mL/min/kg.

As for `Nc1nc(Cl)nc2c1ncn2[C@@H]1O[C@H](COC(Cc2ccccc2)(C(=O)O)C(=O)O)[C@@H](O)[C@@H]1F`, the IC50 in series [3] came out at 159 nM.

On to `C#C[C@@]1(O)[C@@H](COC(Cc2ccccc2)(C(=O)O)C(=O)O)O[C@@H](n2cnc3c(NCC4CC4)nc(Cl)nc32)[C@@H]1O`, for which the half-maximal inhibitory concentration (IC50) in [1] is 11.5 nM. The same molecule showed a clearance in [2] of 3.7 mL/min/kg.

Regarding `CC#C[C@@]1(O)[C@@H](COC(Cc2ccccc2)(C(=O)O)C(=O)O)O[C@@H](n2cnc3c(N)nc(Cl)nc32)[C@@H]1O`, the IC50 in series [1] is 1.6 nM. In series [2], this molecule registered a clearance of 9.9 mL/min/kg.

Consider `C[C@@]1(O)[C@@H](COC(Cc2ccccc2)(C(=O)O)C(=O)O)O[C@@H](n2cnc3c(N)nc(Cl)nc32)[C@@H]1O`, for which the concentration for half-maximal inhibition (IC50) in series [4] stood at 169 nM.

Take `C#C[C@@]1(O)[C@@H](COC(Cc2ccccc2)(C(=O)O)C(=O)O)O[C@@H](n2cnc3c(N(C)C)nc(Cl)nc32)[C@@H]1O`: the IC50 in series [1] was 16 nM. In series [2], this molecule came in with a clearance of 18 mL/min/kg.

One may read the bioavailability as the share of a dose that reaches the circulation, judged against a reference dose that is usually intravenous. Read a low bioavailability as little systemic uptake. `Nc1nc(Cl)nc2c1ncn2[C@@H]1O[C@H](COC(Cc2ccccc2)(C(=O)O)C(=O)O)[C@@H](O)[C@H]1O`: the IC50 amounted to 100 nM in [3] and 434 nM in series [4]. In addition, the bioavailability in series [5] turned out to be 1.8%. Besides, the clearance in [2] was 20.4 mL/min/kg.

On to `C#C[C@@]1(O)[C@@H](COC(Cc2ccccc2)(C(=O)O)C(=O)O)O[C@@H](n2cnc3c(NC(C)C)nc(Cl)nc32)[C@@H]1O`, for which the half-maximal inhibitory concentration (IC50) in series [1] worked out at 50 nM. In series [2], this molecule had a clearance of 1.4 mL/min/kg.

Consider `C#C[C@@]1(O)[C@@H](COC(Cc2ccccc2)(C(=O)O)C(=O)O)O[C@@H](n2cnc3c(NC(C)C)cc(Cl)nc32)[C@@H]1O`, for which the half-maximal inhibitory concentration (IC50) in series [6] was 2 nM; in series [1], 160 nM. In series [2], the clearance came to 0.91 mL/min/kg.

As to `C#C[C@@]1(O)[C@@H](COC(Cc2ccccc2)(C(=O)O)C(=O)O)O[C@@H](n2cnc3c(N4CC(O)C4)nc(Cl)nc32)[C@@H]1O`, the half-inhibitory concentration (IC50) in series [1] worked out at 5.4 nM. Further, the clearance in [2] came out at 17 mL/min/kg.

As for `C#C[C@@]1(O)[C@@H](COC(Cc2ccccc2)(C(=O)O)C(=O)O)O[C@@H](n2cnc3c(NC)nc(Cl)nc32)[C@@H]1O`, the IC50 in series [1] is 15.5 nM. The clearance in series [2] came out at 10 mL/min/kg.

As for `C#C[C@@]1(O)[C@@H](COC(Cc2ccccc2)(C(=O)O)C(=O)O)O[C@@H](n2cnc3c(-c4cccs4)nc(Cl)nc32)[C@@H]1O`, in series [1], the half-inhibitory concentration (IC50) came to 136 nM.

Take `Nc1nc(Cl)nc2c1ncn2[C@@H]1O[C@H](COC(Cc2ccccc2)(C(=O)O)C(=O)O)[C@](O)(C#CC2CC2)[C@H]1O`: the IC50 in [1] turned out to be 1.5 nM. The molecule further came in with a clearance in series [2] of 54 mL/min/kg.

On to `Nc1ncnc2c1ncn2[C@@H]1O[C@H](COP(=O)(O)CP(=O)(O)O)[C@@H](O)[C@H]1O` [PHOSPHOMETHYLPHOSPHONIC ACID ADENOSYL ESTER], for which, in series [3], the IC50 was 6090 nM.

For `C#C[C@@]1(O)[C@@H](COC(Cc2ccc(N3CCCCC3=O)cc2)(C(=O)O)C(=O)O)O[C@@H](n2cnc3c(N)nc(Cl)nc32)[C@@H]1O`, the Ratio IC50 in series [7] stood at 1.

Take `CC[C@@]1(O)[C@@H](COC(Cc2ccccc2)(C(=O)O)C(=O)O)O[C@@H](n2cnc3c(N)nc(Cl)nc32)[C@@H]1O`: the IC50 in series [6] worked out at 200 nM.

As for `C#C[C@@]1(O)[C@@H](COC(Cc2ccccc2)(C(=O)O)C(=O)O)O[C@@H](n2cnc3c(NCC)nc(Cl)nc32)[C@@H]1O`, the IC50 in series [1] came to 6.5 nM. Further, in series [2], the clearance was 7.8 mL/min/kg.

Regarding `CN(C(=O)c1ccccc1)c1ccc(CC(OC[C@H]2O[C@@H](n3cnc4c(N)nc(Cl)nc43)[C@@H](F)[C@@H]2O)(C(=O)O)C(=O)O)cc1`, the IC50 in [3] worked out at 9 nM.

Regarding `C#C[C@@]1(O)[C@@H](COC(Cc2ccccc2)(C(=O)O)C(=O)O)O[C@@H](n2cnc3c(N[C@H](C)c4ccccc4)nc(Cl)nc32)[C@@H]1O`, the concentration for half-maximal inhibition (IC50) in [1] turned out to be 917 nM. Besides, in series [2], the clearance came to 1 mL/min/kg.

Turning to `C#C[C@@]1(O)[C@@H](COC(Cc2ccc(-c3ccccc3)cc2)(C(=O)O)C(=O)O)O[C@@H](n2cnc3c(N)nc(Cl)nc32)[C@@H]1O`, the Ratio IC50 in series [7] is 52. In [1], the IC50 was 15.6 nM. This molecule also showed a clearance in series [2] of 64 mL/min/kg.

Take `C#C[C@@]1(O)[C@@H](COC(Cc2ccccc2)(C(=O)O)C(=O)O)O[C@@H](n2cnc3c(N(C)C)cc(Cl)nc32)[C@@H]1O`: the IC50 worked out at 2.1 nM in [6] and 41 nM in series [1]. Moreover, in series [2], the clearance is 5.9 mL/min/kg.

On to `C#C[C@@]1(O)[C@@H](COC(Cc2ccccc2)(C(=O)O)C(=O)O)O[C@@H](n2cnc3c(N[C@@H](C)c4ccccc4)nc(Cl)nc32)[C@@H]1O`, for which the IC50 in [1] came out at 208 nM. Also, in series [2], the clearance was 9.2 mL/min/kg.

In the case of `C#C[C@@]1(O)[C@@H](COC(Cc2ccccc2)(C(=O)O)C(=O)O)O[C@@H](n2cnc3c(NCc4ccccc4)nc(Cl)nc32)[C@@H]1O`, the IC50 in [1] is > 100 nM. In addition, the clearance in [2] was found to be 6.3 mL/min/kg.

`C#C[C@@]1(O)[C@@H](COC(Cc2ccc(-c3ccc[nH]c3=O)cc2)(C(=O)O)C(=O)O)O[C@@H](n2cnc3c(N)nc(Cl)nc32)[C@@H]1O`: the Ratio IC50 in series [7] turned out to be 3.8. For the same molecule, the IC50 in [1] amounted to 0.38 nM.

For `C#C[C@@]1(O)[C@@H](COC(Cc2ccc(-c3ccccc3C(=O)O)cc2)(C(=O)O)C(=O)O)O[C@@H](n2cnc3c(N)nc(Cl)nc32)[C@@H]1O`, in series [7], the Ratio IC50 worked out at 14. The 50% inhibitory concentration (IC50) in series [1] came out at 2.8 nM. In addition, the clearance in series [2] was 2.9 mL/min/kg.

On to `C#C[C@@]1(O)[C@@H](COC(Cc2ccccc2)(C(=O)O)C(=O)O)O[C@@H](n2cnc3c(N)nc(Cl)nc32)[C@@H]1O`, for which, in series [8], the result was Active. Besides, the IC50 in [9] stood at 7.3 nM. Moreover, the clearance in [2] is 13 mL/min/kg.
